This note sets out measurements from ChEMBL document CHEMBL1201862, “PubChem BioAssay data set” (2004).

Structures are written as SMILES. Where “and” joins values, the source holds several entries; their conditions need not be identical. Identical values can stand only once.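 In this assay, cells in 96-well plates receive the compound at five concentrations for 48 hours. Endpoints are linearly interpolated between the surrounding concentrations. At the GI50, growth is halved.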 Calls of active or inactive are those of the source. Rule as the data show it: active = GI50 up to about 1.1 µM and inactive = higher.

Test in all cases: inhibition of tumour cell growth, NCI panel, 48 h
In experiment [1] the test system is DU-145.
Experiment [2] has as its system EKVX.
Experiment [3] concerns HCT-116.
Experiment [4] has as its system HCT-15.
The test system of experiment [5] is HOP-62.
The subject of experiment [6] is HOP-92.
The test system of experiment [7] is Hs-578T.
In experiment [8] the test system is K562.
The subject of experiment [9] is MDA-MB-231.
Experiment [10] has as its system MOLT-4.
Experiment [11] has as its system NCI-H226.
Experiment [12] relates to OVCAR-3.
Experiment [13] has as its system OVCAR-8.
The subject of experiment [14] is PC-3.
The test system of experiment [15] is RPMI-8226.
The subject of experiment [16] is RXF 393.
Experiment [17] concerns SK-MEL-28.
Experiment [18] has as its system TK-10.
Experiment [19] has as its system UACC-257.
Experiment [20] deals with UO-31.

On to `Cc1ccc(-c2sc(-c3ccc(C)cc3)c3c2C2CCC3C2)cc1`, for which the GI50 in [1] was > 50 µM (inactive); in experiment [2], > 50 µM (inactive); in experiment [3], > 50 µM (inactive); in experiment [4] it was > 50 µM; in [5], > 50 µM (inactive); in experiment [6] it was > 50 µM (inactive). The GI50 in experiment [7], in [8], in [9], in [10], in [11] and in experiment [12] was > 50 µM (inactive) each time. Further, the GI50 in [13], in [14], in experiment [15], in [16], in experiment [17] and in experiment [18] was > 50 µM (inactive) each time. In addition, the GI50 in [19] and in experiment [20] was > 50 µM (inactive) throughout.
With `Cc1cccc(/N=C/C=C(\Cl)c2ccc3ccccc3c2)c1`, the GI50 is 17.7 µM (inactive) in experiment [1]; 39.5 µM (inactive) in experiment [2]; 2.98 µM (inactive) in experiment [3]; 11.7 µM in experiment [4]; 17 µM (inactive) in experiment [5]; 24.1 µM (inactive) in experiment [6]. The GI50 in experiment [7] is 26.6 µM (inactive); in experiment [8] it was 12.6 µM (inactive); in experiment [9], 15.9 µM (inactive); in experiment [10] it was 2.56 µM (inactive); in experiment [11], 34.1 µM (inactive); in experiment [12] it was 15 µM (inactive). Also, the GI50 was 18.4 µM (inactive) in experiment [13]; 21 µM (inactive) in experiment [14]; 7.91 µM (inactive) in experiment [15]; 15.6 µM (inactive) in experiment [16]; 17.5 µM (inactive) in experiment [17]; 19.8 µM (inactive) in experiment [18]. For the same molecule, the GI50 was 15.7 µM (inactive) in experiment [19] and 16.2 µM (inactive) in [20].
Turning to `COc1ccc2oc(C(=O)N3CC(CCl)c4ccc(N)cc43)cc2c1` (stereo not given), the GI50 in experiment [1] was 0.247 µM (active); in experiment [2], 0.933 µM (active); in [3], 0.161 µM (active); in experiment [4], 0.238 µM; in [5], 0.995 µM (active); in experiment [6], 0.358 µM (active). The GI50 was 0.857 µM (active) in experiment [7]; 0.39 µM (active) in [8]; 0.826 µM (active) in [9]; 0.255 µM (active) in [10]; 1.16 µM (inactive) in experiment [11]; 0.918 µM (active) in experiment [12]. The GI50 is 0.279 µM (active) in experiment [13]; 0.296 µM (active) in [14]; 0.226 µM (active) in experiment [15]; 0.249 µM (active) in [16]; 0.42 µM (active) in [17]; 2.9 µM (inactive) in [18]. For the same molecule, the GI50 in experiment [19] was 0.596 µM (active); in experiment [20], 0.194 µM (active).
Turning to `S=c1nc(N/N=C/c2cccs2)c2cn[nH]c2[nH]1`, the GI50 in experiment [1] was 34.8 µM (inactive); in experiment [2], 31.9 µM (inactive); in experiment [3], 16.2 µM (inactive); in experiment [4], 19.5 µM; in [5], 23.2 µM (inactive); in experiment [6], 52.6 µM (inactive). The GI50 in [7] was > 100 µM (inactive); in experiment [8] it was 16.3 µM (inactive); in [9] it was 28.1 µM (inactive); in experiment [10], 14 µM (inactive); in [11], 92 µM (inactive); in experiment [12], 9.25 µM (inactive). Also, the GI50 in experiment [13] was 25.6 µM (inactive); in experiment [14], 15.1 µM (inactive); in experiment [15] it was 5.04 µM (inactive); in [16], 16.1 µM (inactive); in [17], 46.7 µM (inactive); in experiment [18] it was 17.9 µM (inactive). Also, the GI50 in [19] is 35.7 µM (inactive); in experiment [20], > 100 µM (inactive).
In the case of `O=C1N/C(=N/N=C\C(O)C(O)C(O)CO)N/C1=C/c1ccc(Cl)cc1` (stereo not given), the GI50 was 44.8 µM (inactive) and 70.5 µM (inactive) in experiment [1]; 34.8 µM (inactive) and 26.7 µM (inactive) in [2]; 43.9 µM (inactive) and 46.2 µM (inactive) in [3]; 20.6 µM in [4]; 46.2 µM (inactive) and 40.3 µM (inactive) in [5]; 17 µM (inactive) and 32.1 µM (inactive) in experiment [6]. The GI50 was 40.1 µM (inactive) and 29 µM (inactive) in experiment [7]; 27.3 µM (inactive) and 27.2 µM (inactive) in experiment [8]; 58.5 µM (inactive) and 44.6 µM (inactive) in experiment [9]; 18.5 µM (inactive) and 16.3 µM (inactive) in [10]; 21 µM (inactive) and 22.2 µM (inactive) in experiment [11]; 21.6 µM (inactive) and 17.2 µM (inactive) in experiment [12]. For the same molecule, the GI50 in experiment [13] is 44.1 µM (inactive) and 27.7 µM (inactive); in experiment [14], 42.8 µM (inactive) and 37.5 µM (inactive); in experiment [15], 33.2 µM (inactive) and 34.4 µM (inactive); in experiment [16], 92 µM (inactive); in experiment [17], > 100 µM (inactive) and 64.6 µM (inactive); in [18] it was > 100 µM (inactive) and 89.7 µM (inactive). Besides, the GI50 is > 100 µM (inactive) in [19]; 28.8 µM (inactive) and 31.7 µM (inactive) in experiment [20].
Turning to `COc1ccc(C=C2C(=O)NC(=S)NC2=O)c2ccccc12`, the GI50 was 23.8 µM (inactive) in experiment [1]; 82 µM (inactive) in experiment [2]; 40 µM (inactive) in [3]; 33.1 µM in experiment [4]; 30.4 µM (inactive) in experiment [5]; > 100 µM (inactive) in experiment [6]. Besides, the GI50 in [7] is 28.2 µM (inactive); in [8], 43.4 µM (inactive); in experiment [9] it was 39.9 µM (inactive); in experiment [10], 83.2 µM (inactive); in experiment [11], 0.179 µM (active); in [12] it was 24 µM (inactive). Further, the GI50 in experiment [13] was 33.4 µM (inactive); in [14], 26.2 µM (inactive); in experiment [15], 34.5 µM (inactive); in [16], 20.7 µM (inactive); in experiment [17], 57.8 µM (inactive); in [18], 7.6 µM (inactive). Besides, the GI50 is 14.4 µM (inactive) in experiment [19] and > 100 µM (inactive) in experiment [20].
As to `CC[C@@]1(O)C(=O)OCc2c1cc1n(c2=O)Cc2cc3ccccc3nc2-1` [CAMPTOTHECIN], the GI50 in experiment [1] was < 0.01 µM (active); in experiment [2], 0.0951 µM (active); in [3], 0.023 µM (active); in experiment [4] it was 0.152 µM; in experiment [5], 0.0116 µM (active); in experiment [6], 0.0337 µM (active). Further, the GI50 in experiment [7] is 0.817 µM (active); in experiment [8], 0.0764 µM (active); in experiment [9], 0.938 µM (active); in [10], < 0.01 µM (active); in experiment [11] it was 0.0179 µM (active); in [12], 0.177 µM (active). Further, the GI50 in experiment [13] was 0.0388 µM (active); in experiment [14] it was 0.0644 µM (active); in experiment [15], 0.0336 µM (active); in experiment [16], 0.0256 µM (active); in experiment [17] it was 0.228 µM (active); in experiment [18] it was 1.32 µM (inactive). The GI50 was 0.0543 µM (active) in experiment [19] and 0.0303 µM (active) in [20].
